{
  "source": "paper PMC3795025",
  "about": "“A Target-Disease Network Model of Second-Generation BCR-ABL Inhibitor Action in Ph+ ALL” (PLoS ONE, 2013)",
  "target": "LYN (Homo sapiens, UniProt P07948)",
  "sequence (P07948 2-512)": "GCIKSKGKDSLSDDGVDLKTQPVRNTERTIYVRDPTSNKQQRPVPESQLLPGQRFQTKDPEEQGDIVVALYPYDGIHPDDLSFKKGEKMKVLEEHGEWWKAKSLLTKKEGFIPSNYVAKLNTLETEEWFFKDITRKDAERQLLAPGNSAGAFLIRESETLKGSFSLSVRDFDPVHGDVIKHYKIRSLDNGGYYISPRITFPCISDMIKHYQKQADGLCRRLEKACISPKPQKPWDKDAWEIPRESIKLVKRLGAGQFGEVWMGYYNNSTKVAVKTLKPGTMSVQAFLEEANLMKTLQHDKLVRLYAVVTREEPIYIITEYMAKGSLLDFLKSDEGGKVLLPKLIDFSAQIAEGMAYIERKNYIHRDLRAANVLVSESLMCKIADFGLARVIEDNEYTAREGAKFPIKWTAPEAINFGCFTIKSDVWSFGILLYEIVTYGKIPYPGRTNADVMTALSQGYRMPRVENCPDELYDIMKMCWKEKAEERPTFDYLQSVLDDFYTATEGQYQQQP",
  "experiment": "chemical proteomics pulldown from cell lysate (c-bafetinib beads, competition with […] free drug)",
  "assay_type": "cell-based",
  "data": [
    {"smiles": "Cc1ccc(NC(=O)c2ccc(CN3CC[C@H](N(C)C)C3)c(C(F)(F)F)c2)cc1Nc1nccc(-c2cncnc2)n1", "note": "[bafetinib]", "values": [
      {"measurement": "chemical proteomics pulldown from cell lysate (c-bafetinib beads, competition wi)", "value": "LYN and BTK have been identified with all four TKI in the present chemical proteomics screen"}
    ]}
  ]
}
